Measured values published in patent publication US9115088B2, “Anti-malarial agents” (MERCK PATENT GMBH, priority 2012, dated 2015).
Counter-ions that a name gives are not always drawn. Like-named read-outs stand apart in the source and are kept apart here.

Legend:
[1] = test system: Plasmodium falciparum; experiment: P. falciparum SCID mouse model; assay type: in vivo; details: preliminary results
From the text: Compounds can be further assessed using a murine model of Plasmodium falciparum malaria (the so-called P. falciparum SCID mouse model). The murine Plasmodium falciparum models require the engrafment of mice with human erythrocytes. The use NODscidlL2Rγ^null mice engrafted with human erythrocytes and competent P. falciparum strains have been validated for the preclinincal evaluation of antimalarials. The test protocol is described in detail at Antimicrobial Agents and Chemotherapy, 2009, 53 4533-4536, the contents of which are included herein by reference.

[2] = Thermogravimetric analysis (TGA); assay type: physicochemical; details: 10° C./min; example 1A heated to ~120° C., example 2 to ~150° C.
Procedure: Thermogravimetric Analysis (TGA) of compounds of the invention was conducted at 10° C./min ramping form room temperature to desired temperature in open platinum pans using at TA Instruments Q5000 TGA. The temperature was calibrated using nickel and weight using TA-supplied standard weights and verified against calcium oxalate monohydrate dehydration and decomposition. Typical parameters for TGA are described in Table 5. [table]

[3] = Dynamic vapour sorption (DVS) moisture sorption; assay type: physicochemical; details: for hygroscopicity (DVS): 25° C.; for water uptake (DVS): 80% R.H./25° C.
Procedure: The moisture sorption of compounds of the invention was measured using a SMS (Surface Measurement Systems) DVS Intrinsic. The relative humidity at 25° C. was calibrated against deliquescence point of LiCl, Mg(NO3)2 and KCl. Parameters for DVS test are listed below. [table]

[4] = test system: Plasmodium falciparum strain 3D7; experiment: Plasmodium falciparum 3D7 growth inhibition, SYBRgreen fluorescence assay; assay type: cell-based; details: minimum of 3 independent experiments, read-out: EC50 (μM) for Pf 3D7
Procedure: Parasite cultures and cytotoxicity assay methodology for Plasmodium falciparum. Cultures of the widely-used malaria reference strain of chloroquinine-sensitive Plasmodium falciparum strain 3D7 were maintained in a 5% suspension of human red blood cells cultured in RPMI 1640 medium supplemented with 0.5% Albumax II (available from Gibco Life Technologies, San Diego, Calif.), 12 mM sodium bicarbonate, 0.2 mM hypoxanthine, (pH 7.3), and 20 mg/litre gentamicin at 37° C., in an atmosphere of 1% O2, 3% CO2 with a gas balance of nitrogen. […] Mefloquine was used as a drug control to monitor the quality of the assay (Z′=0.6 to 0.8, where Z′ is a measure of the discrimination between the positive and negative controls on a screen plate). Dose-response curves were determined from a minimum of 3 independent experiments. Compound bioactivity was expressed as EC50, the effective concentration of compound causing 50% parasite death.

[5] = test system: sporogonic development in the mosquito; experiment: Standard membrane feeding assay (SMFA); assay type: in vivo; details: preliminary results
From the text: The standard membrane feeding assay (SMFA) is used to test the potential effects of compounds or drugs on sporogonic development in the mosquito and it is used to asses their potential for malaria transmission blocking in vivo. The test protocol is described in detail at Antimicrobial Agents and Chemotherapy, 2012, 56 3544-3548 and PLoS ONE 7(8): e42821, the contents of which are included herein by reference.

[6] = test system: GFP-transfected Plasmodium berghei ANKA strain; experiment: Plasmodium berghei mouse model, standard Peter's four-day test; assay type: in vivo; details: NMRI female mice, oral, 1 mg/kg 4x (once a day for four days); for % Reduction in parasitaemia: parasitaemia 24 h after last dose
From the text: Plasmodium species that lead to human malarial infection are essentially unable to infect non-primate animal models. Rodent models as antimalarial drug discovery efficacy models for compound screening have been extensively used and validated for use through the identification of several antimalarial drugs such as mefloquine, and artemisinin derivatives. Such mouse models, including the Plasmodium berghei mouse model are an integral part of the drug discovery and development pathway. […] In particular experimental results have shown that a compound of formula (I) has improved potency, expressed as ED90, the dose required to eradicate 90% of the target infection [ED90 of 0.3-0.1 mg/kg], versus existing anti-malarial drugs.
Methodology. Using the standard Peter's test in NMRI female mice infected with GFP-transfected Plasmodium berghei ANKA strain were used. Test compounds were dosed orally once a day for four days at nine dose levels ([…], 0.03, 0.1, 0.3, 1, 3, 10, 30 mg/kg) and parasitaemia assessed 24 h after the last dose to determine ED90. The test protocol is described in detail Nature, 2004, 430, 900-904, the contents of which are included herein by reference.

[7] = concentration causing 50% parasite death
[8] = Plasmodium falciparum, 3D7, concentration causing 50% parasite death

Structure (SMILES) | EC50 [4, 7] | Mean Survival [6] | % Reduction in parasitaemia [6] | EC50 [4, 8] | further results
O=C(NCCN1CCCC1)c1cc(-c2ccc(CN3CCOCC3)cc2)nc2ccc(F)cc12 [Example 1, 6-Fluoro-2-[4-(morpholinomethyl)phenyl]-N-(2-pyrrolidin-1-ylethyl)quinoline-4-carboxamide] | 0.001 µM | 14 days | 99.9% | – | in vivo behaviour in the P. falciparum SCID mouse model [1]: desirable in vivo behaviour; weight loss on heating (TGA) [2]: < 0.1 wt %; solid form change post DVS testing [3]: No solid form change; hygroscopicity (DVS) [3]: non-hygroscopic; water uptake (DVS) [3]: 0.1%; in vivo behaviour in standard membrane feeding assay [5]: desirable in vivo behaviour
O=C(NCCN1CCCC1)c1cc(-c2ccc(CN3CCOCC3)cc2)nc2ccc(F)cc12.O=C(O)/C=C/C(=O)O [Example 2, 6-Fluoro-2-[4-(morpholinomethyl)phenyl]-N-(2-pyrrolidin-1-ylethyl)quinoline-4-carboxamide; fumaric acid salt] | 0.007 µM | – | – | – | weight loss on heating (TGA) [2]: negligible weight loss; solid form change post DVS testing [3]: No solid form change; hygroscopicity (DVS) [3]: slightly hygroscopic; water uptake (DVS) [3]: ~1.2%
O=C(NCCN1CCCC1)c1cc(-c2ccc(CN3CCOCC3)cc2)nc2ccc(Cl)cc12 [Example 3, 6-chloro-2-[4-(morpholinomethyl)phenyl]-N-(2-pyrrolidin-1-ylethyl)quinoline-4-carboxamide] | – | – | – | 0.001 µM | –
O=C(NCCN1CCCC1)c1cc(-c2ccc(CN3CCOCC3)cc2)nc2ccccc12 [Example 4, 2-[4-(morpholinomethyl)phenyl]-N-(2-pyrrolidin-1-ylethyl)quinoline-4-carboxamide] | 0.001 µM | – | – | – | –
O=C(NCCN1CCCC1)c1cc(-c2ccc(CN3CCOCC3)cc2)nc2ccccc12 [Example 5, 2-[4-(morpholinomethyl)phenyl]-N-(2-pyrrolidin-1-ylethyl)quinoline-4-carboxamide; fumaric acid salt] | 0.003 µM | – | – | – | –
O=C(NCCN1CCCC1)c1cc(-c2ccc(CN3CCOCC3)c(F)c2)nc2ccc(F)cc12 [Example 6, 6-fluoro-2-(3-fluoro-4-(morpholinomethyl)phenyl)-N-(2-(pyrrolidin-1-yl)ethyl)quinoline-4-carboxamide] | – | 11 days | 99.8% | 0.0007 µM | –
O=C(NCCN1CCCC1)c1cc(-c2ccc(CN3CCOCC3)cc2F)nc2ccc(F)cc12 [Example 7, 6-fluoro-2-(2-fluoro-4-(morpholinomethyl)phenyl)-N-(2-(pyrrolidin-1-yl)ethyl)quinoline-4-carboxamide] | – | 11 days | 99.9% | 0.0005 µM | –
O=C(NCCN1CCCC1)c1cc(-c2cc(F)c(CN3CCOCC3)c(F)c2)nc2ccc(F)cc12 [Example 8, 2-(3,5-difluoro-4-(morpholinomethyl)phenyl)-6-fluoro-N-(2-(pyrrolidin-1-yl)ethyl)quinoline-4-carboxamide] | – | – | – | 0.004 µM | –
O=C(NCCN1CCCC1)c1cc(-c2ccc(CN3CCS(=O)(=O)CC3)cc2)nc2ccc(F)cc12 [Example 9, 2-(4-((1,1-dioxidothiomorpholino)methyl)phenyl)-6-fluoro-N-(2-(pyrrolidin-1-yl)ethyl)quinoline-4-carboxamide] | – | 7 days | 99.0% | 0.0006 µM | –
O=C(NCCN1CCCC1)c1cc(-c2ccc(CN3CCOCC3)cc2Cl)nc2ccc(F)cc12 [Example 11, 2-(2-chloro-4-(morpholinomethyl)phenyl)-6-fluoro-N-(2-(pyrrolidin-1-yl)ethyl)quinoline-4-carboxamide; fumaric acid salt] | – | – | – | 0.003 µM | –
